# Experimental data from paper PMC4222822, “Discovery and Characterization of a Potent and Selective Inhibitor of Aedes aegypti Inward Rectifier Potassium Channels” (PLoS ONE, 2014).
# Legend:
# [1] = system: adult female mosquitoes (A. aegypti); assay: Mosquito toxicology experiments (hemolymph injection); type: in vivo, Aedes aegypti
# Experimental: (§1) The Aedes aegypti mosquito colony used in the present study is identical to that described previously. As before, only adult female mosquitoes 3–10 days post emergence were utilized for experiments.
# Adult female mosquitoes for injection were anesthetized on ice and impaled through the metapleuron using a pulled-glass capillary attached to a nanoliter injector (Nanoject II, Drummond Scientific Company, Broomall, PA). Each mosquito received a single hemolymph injection of 69 nL of solution. The injection solution consisted of a potassium-rich phosphate buffered saline (K^+-PBS), 15% DMSO, 1% β-cyclodextrin, 0.1% Solutol, and a concentration of VU625 to deliver the doses indicated. In experiments where probenecid was used, water-soluble probenecid (Biotium, Hayward CA) was included in the injection solution at 50 mM, thereby providing a dose of 3.4 nmol per mosquito.
# The K^+-PBS solution consisted of the following in mM: 92.2 NaCl, 47.5 KCl, 10 Na2HPO4, and 2 KH2PO4 (pH 7.5). A total of 10 mosquitoes were injected for a given treatment or dose, and then were placed into small cages within a rearing chamber (28°C, 80% relative humidity, 12∶12 light:dark) and allowed free access to a solution of 10% sucrose. […] For each treatment, 3–7 replicates of 10 mosquitoes each were performed.
# (§2) Prism (GraphPad Software) was used to generate a dose-response curve for the toxicity of VU625; the doses (x-axis) were first log transformed and then the mortality data was normalized using Prism, where the smallest value and largest values in a data set equal ‘0%’ and ‘100%’, respectively. The data were then fitted using a ‘biphasic’ algorithm (<100 constraint) to calculate potencies (ED25 and ED75 values). To compare 1) the toxic effects among the vehicle, probenecid, VU625, and VU625 + probenecid treatments, and 2) the excretory capacity among the vehicle, probenecid, VU625, and VU625 + probenecid treatments, one-way ANOVAs were performed with Newman-Keuls posttests.
# [2] = system: adult female mosquitoes (A. aegypti); assay: Mosquito excretion experiments (excretory capacity); type: in vivo, Aedes aegypti; conditions: 1 h after injection, mean ±SEM
# Experimental: as §1
# The excretory capacity of mosquitoes was measured as described. In brief, after anesthetizing mosquitoes on ice, their hemolymph was injected as described above with 900 nL of a K^+-PBS vehicle containing 1.15% DMSO, 0.077% β-cyclodextrin, and 0.008% Solutol, or the vehicle containing VU625 (0.77 mM) to deliver a dose of 690 pmol of VU625 per mosquito. In experiments where probenecid was used, the vehicle was supplemented with water- soluble probenecid […] to deliver a dose of 3.4 nmol of probenecid per mosquito. After injection, the mosquitoes were placed immediately in a graduated, packed-cell volume tube (MidSci, St. Louis, MO; 5 mosquitoes per tube) and held at 28°C. The volume of urine excreted at 60 min post injection was measured as described previously, and all mosquitoes were confirmed to be alive at the end of 60 min period. For each treatment, 6–18 independent trials of 5 mosquitoes per treatment were performed.
# as §2
# [3] = co-injected with probenecid 3.4 nmol per mosquito, mortality at 24 h post-injection, biphasic fit
structure (smiles),measurement,setting,value
"CCC(=O)N1c2ccc(S(=O)(=O)Nc3cccc(OC)c3)cc2CC1C (stereo not shown) [VU625, N-(3-methoxyphenyl)-2-methyl-1-propionylindoline-5-sulfonamide]",effect on mosquito behavior or survival,"[1]; 690 pmol per mosquito, hemolymph injection, alone, 24 h",no significant effects on mosquito behavior or survival within 24 h
same,toxicity on co-injection with probenecid,"[1]; VU625 690 pmol + probenecid 3.4 nmol per mosquito, 24 h, vs VU625 or probenecid alone",significantly increases the toxicity of VU625 within 24 h
same,ED25 (mortality),[1]; [3],9.96 pmol
same,ED75 (mortality),[1]; [3],502 pmol
same,efficacy of VU625 with PBO,[1]; preliminary experiments with PBO,did not improve the efficacy
same,excretory capacity (urine excreted),[2]; VU625 690 pmol + probenecid 3.4 nmol per mosquito in 900 nL vehicle,236.7±24.53 nL/female
same,excretory capacity (urine excreted),[2]; VU625 690 pmol per mosquito in 900 nL vehicle,583.3±29.52 nL/female
